Reference: patent US20240041976A1, “COMPOSITION AND USE” (priority 2020, published 2024)

Experiments:
Format in all cases: cell-based, Staphylococcus aureus
S. aureus ATTC 33591 = test: Planktonic cell growth inhibition assay (MIC50, liquid culture)
Protocol: (§1) Growth inhibition assays were performed in 96-well microtiter plates as described previously (Chi and Holo, 2018, supra). Briefly, 135 μl of TSB were dispensed in each well of a microtiter plate (according to the number of bacterial strains tested) except in the wells of the first row. The antimicrobials were diluted in TSB to working concentrations in a final volume of 285 μl and dispensed in the wells of the first row. The working concentrations were 100 μg/μl for garvicin KS, 10 μg/μl for micrococcin P1 and 1 mg/ml for penicillin G. From the first row, 150 μl of the antimicrobials were then serially diluted (two-fold dilutions) in a sequential fashion until the last row of the plate. Finally, 15 μl of a fresh O/N culture of each strain were added in the appropriate wells to reach a final volume of 150 μl in each well. The plates were then incubated at 37° C. for 24 h. The growth inhibition was expressed as minimum inhibitory concentration (MIC50), which refers to the minimum concentration of the antimicrobial needed to reduce at least 50% of the microbial growth compared to the untreated control. The MIC50 was assessed by optical density readings at 600 nm (O.D.600).
(§2) Synergistic interactions between antimicrobials were determined using the fractional inhibition concentration (FIC). The FIC values were calculated as follows: the sum of the FIC =FICa+FICb+FICc, where the FICa means MIC of A in combination/MIC of A alone, FICb means MIC of B in combination/MIC of B, and FICc means MIC of C in combination/MIC of C alone. Effects were considered as synergistic if FIC was ≤0.5 for two components mixture and ≤0.75 for three components mixture.

S. aureus Newman = test: as above
Protocol: as §1, §2

S.a. 3255 = test: as above
Protocol: as §1, §2

S. aureus ATTC 29213 = test: as above
Protocol: as §1, §2

S. aureus ATTC 10832 = test: as above
Protocol: as §1, §2

S. aureus USA 300 = test: as above
Protocol: as §1, §2

S. aureus LMG3265 = test: AAMP assay (MIC), single components and formulation mixture; details: Staphylococcus aureus, LMG3265, 24 h; read-out: MIC, single component
Protocol: (§3) Antimicrobial activity was measured using the AAMP assay (Wiegand et al., 2008, Nat. Protoc., Vol. 3(2), p 163-175).
(§4) Three-component synergy was assessed by mixing the three components (100 μg of PenG, 50 μg of GarKS and 2.5 μg of MP1) into one well of a microtiter plate, compared with activity of individual antimicrobials on the same plate. The fractional inhibition concentration (FIC) which was used to define synergy was calculated as set forth in Example 1.

MRSA USA-300 = test: AAMP assay and checkerboard synergy; details: MRSA USA-300
Protocol: as §3
(§5) Synergy testing was done with a microtiter plate checkerboard assay as previously described (Orhan et al., 2005, J. Clin. Microbiol., Vol. 43(1), p 140-143). Briefly, equal amounts of antimicrobial A were applied on microtiter plate 1 in wells A1-H1 and then diluted two-fold to wells 2-12. Similarly, equal amounts of antimicrobial B were applied on microtiter plate 2 in wells A1-A12 and diluted two-fold in wells B-H. Volumes of 50 μl of antimicrobial A from each well of microtiter plate 1 were transferred into microtiter plate 3, except for wells H1-H12. Similarly, the same volumes were transferred from microtiter plate 2 into plate 3, except for wells A1-A8. A 100 μl volume of 25 times diluted ON bacterial culture of MRSA was transferred into each well of plate 3. A 50 μl volume of pure broth was added into each well in lines H1-H12 and A1-A8 which were used to estimate MIC values of pure substances (blank).
as §4

MRSA 43484 = test: AAMP assay and checkerboard synergy; details: MRSA 43484
Protocol: as §3, §5, §4

MRSA ATCC 33591-lux = test: AAMP assay and checkerboard synergy; details: MRSA ATCC 33591-lux
Protocol: as §3, §5, §4

[1] = system: three MRSA strains (ATCC33591-lux, USA-300 and MRSA 43484); test: AAMP assay and checkerboard synergy, summary
Protocol: as §5, with “Briefly,” for “Synergy testing was done with a microtiter plate checkerboard assay as previously described (Orhan et al., 2005, J. Clin. Microbiol., Vol. 43(1), p 140-143). Briefly,”, “A 100 μl volume of 25 times diluted ON bacterial culture of MRSA was transferred into each well of plate 3.” left out
Three-component synergy was assessed by mixing the three components (100 μg of PenG, 50 μg of GarKS and 2.5 μg of MP1) into one well of a microtiter plate, compared with activity of individual antimicrobials on the same plate.

[2] = garvicin KS + micrococcin P1 + penicillin G
[3] = Staphylococcus aureus, individual component, read-out: MIC50
[4] = Staphylococcus aureus, 24 h, read-out: MIC, single antimicrobial
[5] = triple combination PenG, GarKS and MP1

CC1(C)S[C@@H]2[C@H](NC(=O)Cc3ccccc3)C(=O)N2[C@H]1C(=O)O [Penicillin G]
MIC50 (S. aureus ATTC 33591; Staphylococcus aureus, ATTC33591, individual component, read-out: MIC50): > 1000 µg/mL
MIC50 of the component in combination (S. aureus ATTC 33591; [2]): 130 µg/mL
MIC50 of the component in combination (S. aureus ATTC 33591; garvicin KS + penicillin G): 500 µg/mL
MIC50 (S. aureus Newman; [3]): < 7.8 µg/mL
MIC50 of the component in combination (S. aureus Newman; [2]): <7.8 µg/mL
MIC50 of the component in combination (S. aureus Newman; garvicin KS + penicillin G): <7.8 µg/mL
MIC50 (S.a. 3255; [3]): < 7.8 µg/mL
MIC50 of the component in combination (S.a. 3255; [2]): <7.8 µg/mL
MIC50 of the component in combination (S.a. 3255; garvicin KS + penicillin G): <7.8 µg/mL
MIC50 (S. aureus ATTC 29213; Staphylococcus aureus, ATTC29213, individual component, read-out: MIC50): 130 µg/mL
MIC50 of the component in combination (S. aureus ATTC 29213; [2]): 31 µg/mL
MIC50 of the component in combination (S. aureus ATTC 29213; garvicin KS + penicillin G): 130 µg/mL
MIC50 (S. aureus ATTC 10832; Staphylococcus aureus, ATTC10832, individual component, read-out: MIC50): < 7.8 µg/mL
MIC50 of the component in combination (S. aureus ATTC 10832; [2]): <7.8 µg/mL
MIC50 of the component in combination (S. aureus ATTC 10832; garvicin KS + penicillin G): <7.8 µg/mL
MIC50 (S. aureus USA 300; Staphylococcus aureus, USA300, individual component, read-out: MIC50): > 1000 µg/mL
MIC50 of the component in combination (S. aureus USA 300; [2]): 63 µg/mL
MIC50 of the component in combination (S. aureus USA 300; garvicin KS + penicillin G): 250 µg/mL
MIC (S. aureus LMG3265): 125 µg/mL
MIC of GarKS in comb. antibiotic/GarKS/MP1 (MRSA USA-300): 4 µg/mL
MIC of MP1 in comb. antibiotic/GarKS/MP1 (MRSA USA-300): 0.08 µg/mL
MIC of MP1 in comb. with the labelled antibiotic (MRSA USA-300): 0.3 µg/mL
MIC of the antibiotic in comb. with GarKS and MP1 (MRSA USA-300): 8 µg/mL
MIC of the antibiotic in comb. with MP1 (MRSA USA-300): 32 µg/mL
MIC of the antimicrobial in comb. with GarKS (MRSA USA-300): 16 µg/mL
MIC (MRSA USA-300; [4]): < 2500 µg/mL
MIC of GarKS in comb. antibiotic/GarKS/MP1 (MRSA 43484): 4 µg/mL
MIC of MP1 in comb. antibiotic/GarKS/MP1 (MRSA 43484): 0.08 µg/mL
MIC of MP1 in comb. with the labelled antibiotic (MRSA 43484): 0.3 µg/mL
MIC of the antibiotic in comb. with GarKS and MP1 (MRSA 43484): 8 µg/mL
MIC of the antibiotic in comb. with MP1 (MRSA 43484): 32 µg/mL
MIC of the antimicrobial in comb. with GarKS (MRSA 43484): 16 µg/mL
MIC (MRSA 43484; [4]): < 2500 µg/mL
MIC of GarKS in comb. antibiotic/GarKS/MP1 (MRSA ATCC 33591-lux): 4 µg/mL
MIC of MP1 in comb. antibiotic/GarKS/MP1 (MRSA ATCC 33591-lux): 0.08 µg/mL
MIC of MP1 in comb. with the labelled antibiotic (MRSA ATCC 33591-lux): 0.16 µg/mL
MIC of the antibiotic in comb. with GarKS and MP1 (MRSA ATCC 33591-lux): 8 µg/mL
MIC of the antibiotic in comb. with MP1 (MRSA ATCC 33591-lux): 16 µg/mL
MIC of the antimicrobial in comb. with GarKS (MRSA ATCC 33591-lux): 16 µg/mL
MIC (MRSA ATCC 33591-lux; [4]): < 2500 µg/mL
MIC of GarKS in comb. antibiotic/GarKS/MP1 ([1]; All three strains): 4 µg/mL
MIC of MP1 in comb. antibiotic/GarKS/MP1 ([1]; All three strains): 0.08 µg/mL
MIC of MP1 in comb. with the labelled antibiotic ([1]; All three strains): 0.16 to 0.3 µg/mL
MIC of the antibiotic in comb. with GarKS and MP1 ([1]; All three strains): 8 µg/mL
MIC of the antibiotic in comb. with MP1 ([1]; All three strains): 16 to 32 µg/mL
MIC of the antimicrobial in comb. with GarKS ([1]; All three strains): 16 µg/mL
MIC of the component when combined ([1]; GarKS with Amp or PenG): 16 µg/mL
MIC of the component when combined ([1]; MP1 with PenG): 16 to 32 µg/mL
reduction of MIC when combined ([1]; MP1 with PenG): 80-150 times
MIC ([1]; Staphylococcus aureus, 24 h, All three strains, read-out: MIC, single antimicrobial): > 2500 µg/mL
synergy with GarKS ([1]; checkerboard assay): moderate synergy
MIC of the component when combined [1, 5]: 8 µg/mL
reduction of MIC when combined [1, 5]: more than 300 times
